Assays:
KB cells [1] = experiment: Apoptosis assays (Annexin-V, caspase-3/-7 imaging, TUNEL), KB; format: cell-based, Human; conditions: 48-72 h
Experimental: Cells were cultured in chamber-slides, incubated with test agents for 48 h, and washed twice with PBS. Cells were labeled with Annexin-V-FLUOS reagent (catalog number #11858777001, Roche, Indianapolis, IN) for 30 min at room temperature. The cells were analyzed by fluorescence microscopy.
Caspase-3/-7 activity was analyzed with the MagicRed™ DEVD real-time caspase activity detection kit (catalog number #935, Immunochemistry Technologies LLC, Bloomington, MN). Briefly, cells were cultured in chamber-slides and incubated with test agents for various durations. Cells were then incubated with the Caspase-3/-7 substrate MR-(DEVD2) in culture medium for 1 hour, and then co-incubated with Hoechst 33342 for 15 min. Cells were viewed with a UV-enabled inverted-microscope at an excitation wavelength of 540 nm–560 nm and emission at 610 nm. Experiments were repeated independently at least two times.
Under in vitro conditions, cells were seeded and cultured in 8-well chamber-slides, and treated with various compounds. […] Cells were counterstained with DAPI to detect the nucleus, and examined by fluorescence microscopy. Amount of red fluorescence labeled (DNA fragmented) cells were counted and percentage of apoptotic cells were calculated as follows: Amount of the red fluorescence labeled cells ÷ Total cells available×100. […]

KB cells [2] = experiment: Clonogenic assay, KB; format: cell-based, Human; conditions: Homo sapiens, cervical, p53 wild-type, MDR1 negative (parental), read-out: IC50, anti-proliferative activity
Experimental: (§1) Human lung adenocarcinoma A549 cells and NTUB1 bladder cancer cells were maintained in RPMI supplied with 10% fetal bovine serum. […] KB-derived MRP1-expressing cell line, KB-7D, was maintained in growth medium supplemented with 7 µM VP-16.
(§2) Two hundred cells in logarithmic growth phase were seeded in a 6-well plate. The cells were exposed to various concentrations of the test drugs for a three-generation period. At the end of the incubation period, cells were fixed and stained with 50% ethanol containing 0.5% methylene blue for 30 min. The plates were washed five times with water and allowed to air-dry. Colonies were countered manually. […] Each value represents the average of at least three independent experiments run in triplicates.

HONE-1 cells = experiment: Clonogenic assay, HONE-1; format: cell-based, Human; conditions: Homo sapiens, HONE1; HONE-1, oral, p53 mutant, MDR1 negative; read-out: IC50, anti-proliferative activity
Experimental: as §1, §2

KB-VIN10 cells [3] = experiment: Endo-replication (polyploidy), microscopy and flow cytometry, KB-VIN10; format: cell-based, Human; conditions: for formation of polyploidy (populations >4N): KB-VIN10, 48 h, same concentrations as KB
Experimental: Cell cycle progression was monitored using flow cytometry. After drug treatment, cells were trypsinized, washed with PBS and fixed in 80% ethanol at −20°C for 1 h. The fixed cells were stained with propidium iodide (containing RNase) at room temperature in the dark for 20 min. The DNA content was determined by a fluorescence-activated cell sorting IV flow cytometer (BD Biosciences, Franklin Lakes, NJ). For each analysis, 10,000 cells were counted and the percentage of cells in each phase was calculated using the ModFit LT software (Verity Software House, Topsham, ME). Experiments were repeated independently at least three times.

HCT116 cancer cells = experiment: Western blot of phosphor-Aurora kinases and phosphor-Histone H3 in HCT116 cells; format: cell-based
Experimental: Cells were lysed with ice-cold lysis buffer (10 mM Tris, 1 mM EDTA, 1 mM DTT, 60 mM KCl, 0.5% NP-40 and protease inhibitors). […] The resolved proteins were electrophoretically transferred to PVDF membranes (Amersham Life Science, Amersham, U.K.) for Western blot analysis. The membranes were blocked with 5% non-fat milk at room temperature for two hours, washed twice with TBST (1% Tween) and then incubated with either anti-phosphorylated Aurora-A/-B/-C kinase antibody (#2914S, Cell Signaling Technology, Danvers, MA), anti-Aurora-A and -B kinase antibody (#ab1287 and #ab2254, Abcam, Cambridge, MA), anti-phosphorylated Histone H3 antibody (#9701, Cell Signaling Technology, Danvers, MA), anti-Histone H3 antibody (#9715, Cell Signaling Technology, Danvers, MA), anti-Cyclin B1 antibody or anti-Actin antibody (#sc-245 and #sc-130065, Santa Cruz Biotechnology, Santa Cruz, CA) overnight at 4°C. Membranes were washed twice with TBST then subsequently incubated with a horseradish peroxidase-conjugated secondary antibody (Santa Cruz Biotechnology, Santa Cruz, CA) for 1 hour at room temperature. Immunoreactivity was detected by Enhanced Chemiluminescence (Amersham International, Buckingham, U.K.) and autoradiography. Experiments were repeated independently at least two times.

KB-VIN10 cells [4] = experiment: Clonogenic assay, KB-VIN10; format: cell-based, Human; conditions: for IC50: Homo sapiens, KB-VIN10, vincristine resistant, MDR1 ↑, read-out: IC50, anti-proliferative activity
Experimental: as §1, §2

HT29 cells = experiment: Clonogenic assay, HT29; format: cell-based, Human; conditions: Homo sapiens, HT-29; HT29, colon, p53 mutant, MDR1 negative; read-out: IC50, anti-proliferative activity
Experimental: as §1, §2

Row | SMILES | apoptosis: phosphatidylserine translocation, caspase-3/-7 activity, DNA fragmentation (KB cells [1]) | IC50 (KB cells [2]) [nM] | IC50 (HONE-1 cells) [nM] | formation of polyploidy (populations >4N) (KB-VIN10 cells [3]) | phosphor-Aurora-A, -B and -C kinase (HCT116 cancer cells) | phosphor-Histone H3 (Ser10) (HCT116 cancer cells) | IC50 (KB-VIN10 cells [4]) [nM] | Fold difference as compare to the IC50 in the respective parental cells (KB-VIN10 cells [4]; KB-VIN10 vs KB) [fold] | IC50 (HT29 cells) [nM] | formation of polyploidy, co-treated with verapamil (KB-VIN10 cells [3]; KB-VIN10, + 10 µM verapamil)
1 | CN(C)Cc1ccccc1NC(=O)Nc1ccc(CCNc2ncnc3oc(-c4ccccc4)c(Cl)c23)cc1 [BPR1K653] | induced the caspase-3/-7 activity and DNA fragmentation | 12 ± 4 | 11 | induced the formation of polyploidy | concentration-dependent decrease | concentration-dependent decrease | 14 ± 4 | 1 | 12 ± 2 | 
2 | Cc1cc(Nc2cc(N3CCN(C)CC3)nc(Sc3ccc(NC(=O)C4CC4)cc3)n2)[nH]n1 [VX680] | only induced the translocation of the phosphatidylserine molecule, caspase-3/-7 activity and DNA fragmentation in KB cells | 85 ± 31 | 20 ± 2 | not in KB-VIN10 cells | reduced in a concentration-dependent manner | reduced the amount of phosphor-Histone H3 (Ser10) | 1400 ± 140 |  | 160 ± 33 | formation of the polyploidy population was shown

From article PMC3160846 (PLoS ONE, 2011)
